Each structure is given as a SMILES string.

Data set [1] is described as follows: logP determination by HPLC on a reversed-phase column (C18), EEC Directive 79/831 Annex V.A8. The format is physicochemical. The settings on record: for log P: HPLC-MS, reversed-phase column (C18); for logP^a): HPLC-MS method a), Table I-T3; for logP: HPLC, reversed-phase C18, acetonitrile/water with formic acid, 55° C.
The subject of data set [2] is Ctenocephalides felis. Nature of the data set: Ctenocephalides felis - in vitro contact tests with adult cat fleas. The format is in vivo. The settings on record: application rate 5 μg/cm^2 (=500 g/ha), after 48 h (dead or moribund). As for the experimental part:
Ctenocephalides felis—In Vitro Contact Tests with Adult Cat Fleas
For the coating of the test tubes, 9 mg of active ingredient are first dissolved in 1 ml of acetone p.a. and then diluted to the desired concentration with acetone p.a. 250 μl of the solution are distributed homogeneously on the inner walls and base of a 25 ml test tube by turning and rocking on an orbital shaker (rocking rotation at 30 rpm for 2 h). With 900 ppm active ingredient solution and internal surface area 44.7 cm^2, given homogeneous distribution, an area-based dose of 5 μg/cm^2 is achieved.
After the solvent has evaporated off, the tubes are populated with 5-10 adult cat fleas (Ctenocephalides felis), sealed with a perforated plastic lid and incubated in a horizontal position at room temperature and ambient humidity. After 48 h, efficacy is determined. To this end, the test tubes are stood upright and the fleas are knocked to the base of the tube. Fleas which remain motionless at the base or move in an uncoordinated manner are considered to be dead or moribund.
100% efficacy means that all the fleas were dead or moribund. 0% efficacy means that no fleas were harmed.

The test system of another data set is Boophilus microplus. Nature of the data set: Boophilus microplus - injection test. The format is in vivo. The conditions noted are these: application rate 20 μg/animal; injected into engorged adult female ticks; laying of fertile eggs, after 7 days. In short, it runs like this: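 Engorged adult female ticks, five per dose, were injected in the abdomen with 1 μl of active ingredient diluted in dimethyl sulphoxide. Animals were kept in dishes under climate control, and egg fertility was assessed after 7 days.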

In data set [3] the test system is Boophilus microplus Parkhurst strain, SP-resistant. Nature of the data set: Boophilus microplus - dip test. The format is in vivo. The settings on record: application rate 100 ppm; dip of engorged adult female ticks; laying of fertile eggs, after 7 days. As for the experimental part: Boophilus microplus—Dip Test
Test animals: cattle ticks (Boophilus microplus) Parkhurst strain, SP-resistant
Solvent: dimethyl sulphoxide
10 mg of active ingredient are dissolved in 0.5 ml of dimethyl sulphoxide. For the purpose of producing a suitable formulation, the active ingredient solution is diluted with water to the concentration desired in each case.
This active ingredient formulation is pipetted into tubes. 8-10 adult engorged female cattle ticks (Boophilus microplus) are transferred into a further tube with holes. The tube is immersed into the active ingredient formulation, and all the ticks are completely wetted. After the liquid has run out, the ticks are transferred on filter discs into plastic dishes and stored in a climate-controlled room.
Efficacy is assessed after 7 days by laying of fertile eggs. Eggs which are not visibly fertile are stored in a climate-controlled cabinet until the larvae hatch after about 42 days. An efficacy of 100% means that none of the ticks has laid any fertile eggs; 0% means that all the eggs are fertile.

Data set [4] deals with Ctenocephalides felis. Nature of the data set: Ctenocephalides felis - oral test. The format is in vivo. The settings on record: application rate 100 ppm in citrated cattle blood; adult fleas; kill after 2 days. In short, it runs like this:
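Steps: active ingredient dissolved in dimethyl sulphoxide; blood dilution prepared; fleas (about 20, unfed adults) held in gauze-closed chamber beneath a cylinder of treated blood; feeding via parafilm; kill percentage determined after 2 days.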

The subject of another data set is Lucilia cuprina. Nature of the data set: Lucilia cuprina test. The format is in vivo. The settings on record: application rate 100 ppm; L1 larvae in minced horsemeat; kill after 2 days. In short, it runs like this:
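Mortality (%) of first-instar blowfly larvae, about 20 per vessel, recorded 2 days after exposure to compound-treated minced horsemeat. Compound dissolved in dimethyl sulphoxide, then water-diluted to the desired concentration.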

Another data set relates to Musca domestica. Nature of the data set: Musca domestica test. The format is in vivo. The conditions noted are these: application rate 100 ppm; adult houseflies; kill after 2 days. In a few lines:
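First, 10 mg compound was taken up in 0.5 ml DMSO and then brought with water to the required concentration. This was applied with sugar solution to a sponge in vessels holding 10 adult flies; kill was assessed after 2 days.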

In another data set the test system is Rhipicephalus sanguineus. Nature of the data set: Rhipicephalus sanguineus - in vitro contact tests with adult brown dog ticks. The format is in vivo. The conditions noted are these: application rate 5 μg/cm^2, after 48 h (dead or moribund). As for the experimental part:
Rhipicephalus sanguineus—In Vitro Contact Tests with Adult Brown Dog Ticks
For the coating of the test tubes, 9 mg of active ingredient are first dissolved in 1 ml of acetone p.a. and then diluted to the desired concentration with acetone p.a. 250 μl of the solution are distributed homogeneously on the inner walls and base of a 25 ml test tube by turning and rocking on an orbital shaker (rocking rotation at 30 rpm for 2 h). With 900 ppm active ingredient solution and internal surface 44.7 cm^2, given homogeneous distribution, an area-based dose of 5 μg/cm^2 is achieved.
After the solvent has evaporated off, the tubes are populated with 5-10 adult dog ticks (Rhipicephalus sanguineus), sealed with a perforated plastic lid and incubated in a horizontal position in the dark at room temperature and ambient humidity. After 48 h, efficacy is determined. To this end, the ticks are knocked to the floor of the tube and incubated on a hotplate at 45-50° C. for not more than 5 min. Ticks which remain motionless on the floor or move in such an uncoordinated manner that they are unable to deliberately avoid the heat by climbing upwards are considered to be dead or moribund.
An efficacy of 100% means that all the ticks were dead or moribund. 0% efficacy means that none of the ticks had been harmed.

The log P is the decadic logarithm of the partition coefficient of the neutral form, usually between octanol and water. Turning to `Cc1ncc(-c2cnn(-c3c(Cl)cc(C(F)(C(F)(F)F)C(F)(F)F)cc3C(F)(F)F)c2)cc1C(=O)N(C)C1CC1` [I-T3-130], the “log P” value in data set [1] amounted to 3.8. Moreover, the efficacy (in the data set on Ctenocephalides felis [2]; with Boophilus microplus; in data set [3]; in the data set on Ctenocephalides felis [4]; with Lucilia cuprina; with Musca domestica) was 100% in each case.

On to `CCc1cc(C(F)(C(F)(F)F)C(F)(F)F)ccc1-n1cc(-c2ccc(Cl)c(C(=O)NC3(C#N)CC3)c2)cn1` [I-T3-38], for which the “logP^a)” value in data set [1] turned out to be 4.5. For the same compound, the efficacy with Rhipicephalus sanguineus amounted to 80%; with Boophilus microplus, 100%; in the data set on Ctenocephalides felis [4], 100%; with Lucilia cuprina, 100%; in the data set with Musca domestica it was 100%.

For `Cc1cc(C(F)(C(F)(F)F)C(F)(F)F)cc(C)c1-n1cc(-c2cnc(C)c(C(=O)N(C)C3CC3)c2)cn1` [I-T3-120], the lipophilicity (log P) in data set [1] was 3.6. In addition, the efficacy (in the data set on Ctenocephalides felis [2]; with Boophilus microplus; in data set [3]; with Ctenocephalides felis [4]; in the data set with Lucilia cuprina; with Musca domestica) was 100% each time.

`CN(C(=O)c1cc(-c2cnn(-c3c(Cl)cc(C(F)(F)F)cc3Cl)c2)cnc1Cl)C1CC1` [I-T3-99]: in data set [1], the “log P” value worked out at 3.5. The efficacy with Ctenocephalides felis [2] came to 100%; in the data set on Boophilus microplus it was 100%; in data set [3], 90%; in the data set on Ctenocephalides felis [4], 100%; with Lucilia cuprina, 100%; in the data set on Musca domestica it was 90%.

As to `Cc1cc(C(F)(C(F)(F)F)C(F)(F)F)cc(C)c1-n1cc(-c2cnc(C)c(C(=O)N(C)C3(C#N)CC3)c2)cn1` [I-T3-115], the “log P” value in data set [1] is 3.8. In addition, the efficacy (in the data set on Ctenocephalides felis [2]; in the data set on Boophilus microplus; in data set [3]; in the data set with Ctenocephalides felis [4]; with Lucilia cuprina; in the data set on Musca domestica) was 100% in each case.

With `Cc1ncc(-c2cnn(-c3c(Cl)cc(C(F)(C(F)(F)F)C(F)(F)F)cc3Cl)c2)cc1C(=O)N(C)C1CC1` [I-T3-133], in data set [1], the “log P” value was 3.7. Besides, the efficacy (in the data set on Ctenocephalides felis [2]; in the data set on Boophilus microplus; in data set [3]; with Ctenocephalides felis [4]; in the data set on Lucilia cuprina; in the data set with Musca domestica) was 100% each time.

For the compound `CN(C(=O)c1cc(-c2cnn(-c3c(Cl)cc(C(F)(C(F)(F)F)C(F)(F)F)cc3C(F)(F)F)c2)cnc1Cl)C1CC1` [I-T3-113], the “log P” value in data set [1] is 4.0. For the same compound, the efficacy (with Ctenocephalides felis [2]; in the data set on Boophilus microplus; in data set [3]; in the data set with Ctenocephalides felis [4]; in the data set on Lucilia cuprina; with Musca domestica) was 100% each time.

Regarding `Cc1cc(C(F)(C(F)(F)F)C(F)(F)F)cc(C(F)(F)F)c1-n1cc(-c2cnc(C)c(C(=O)N(C)C3CC3)c2)cn1` [I-T3-118], the “log P” value in data set [1] is recorded as 3.8. The efficacy (in the data set with Ctenocephalides felis [2]; in the data set on Boophilus microplus; in data set [3]; in the data set on Ctenocephalides felis [4]; with Lucilia cuprina; in the data set with Musca domestica) was 100% throughout.

With `Cc1cc(C(F)(C(F)(F)F)C(F)(F)F)cc(C(F)(F)F)c1-n1cc(-c2ccc(Cl)c(C(=O)NC3CSC3)c2)cn1` [I-T3-85], the “logP^a)” value in data set [1] is 4.7. Besides, the efficacy in the data set with Ctenocephalides felis [2], in the data set with Boophilus microplus, in the data set with Ctenocephalides felis [4], in the data set with Lucilia cuprina and in the data set with Musca domestica was 100% each time.

`Cc1cc(C(F)(C(F)(F)F)C(F)(F)F)cc(C)c1-n1cc(-c2cncc(C(=O)NC3CC3)c2)cn1` [I-T3-7]: in data set [1], the “logP^a)” value is reported as 3.4. Also, the efficacy is on record as 100% in the data set with Ctenocephalides felis [2]; 100% in the data set with Boophilus microplus; 100% in the data set on Ctenocephalides felis [4]; 100% in the data set with Lucilia cuprina; 80% in the data set with Musca domestica.

One may read the logP as a log measure of how a compound divides between an organic and an aqueous phase. A low value points to a more hydrophilic compound. Take `Cc1cc(C(F)(C(F)(F)F)C(F)(F)F)cc(C)c1-c1cc(-c2ccc(Cl)c(C(=O)NCC(F)(F)F)c2)on1` [I-T22-3]: the logP in data set [1] came out at 5. In addition, the efficacy in the data set on Ctenocephalides felis [2], with Boophilus microplus, with Ctenocephalides felis [4], with Lucilia cuprina and with Musca domestica was 100% each time.

Consider `CCc1cc(C(F)(C(F)(F)F)C(F)(F)F)ccc1-n1cc(-c2ccc(Cl)c(C(=O)NC3CC3)c2)cn1` [I-T3-39], for which, in data set [1], the “logP^a)” value was determined as 4.6. The efficacy (in the data set with Boophilus microplus; in data set [3]; in the data set on Ctenocephalides felis [4]; in the data set on Lucilia cuprina) was 100% each time.

As for `Cc1cc(C(F)(C(F)(F)F)C(F)(F)F)cc(C(F)(F)F)c1-n1cc(-c2ccc(Cl)c(C(=O)NCC(F)(F)F)c2)cn1` [I-T3-84], the “logP^a)” value in data set [1] is 4.7. The efficacy in the data set with Ctenocephalides felis [2], in the data set on Boophilus microplus, with Ctenocephalides felis [4], in the data set with Lucilia cuprina and with Musca domestica was 100% in each case.

In the case of `CCN(C(=O)c1cc(-c2cnn(-c3c(Cl)cc(C(F)(F)F)cc3Cl)c2)cnc1Cl)C1CC1` [I-T3-145], the “log P” value in data set [1] is given as 3.8. Moreover, the efficacy in the data set with Ctenocephalides felis [2] came out at 100%; with Boophilus microplus, 100%; in the data set with Ctenocephalides felis [4], 100%; in the data set on Lucilia cuprina, 100%; with Musca domestica, 90%.

In data set [1], `N#CC1(NC(=O)c2cc(-c3cc(-c4c(Cl)cc(C(F)(C(F)(F)F)C(F)(F)F)cc4Cl)on3)ccc2Cl)CC1` [I-T23-2] gave a logP of 4.8. Also, the efficacy in the data set on Ctenocephalides felis [2], in the data set on Boophilus microplus, in the data set on Ctenocephalides felis [4], in the data set with Lucilia cuprina and in the data set on Musca domestica was 100% each time.

Turning to `CCc1cc(C(F)(C(F)(F)F)C(F)(F)F)cc(C)c1-n1cc(-c2ccc(Cl)c(C(=O)NC3CSC3)c2)cn1` [I-T3-47], the “logP^a)” value in data set [1] is reported as 5.0. Moreover, the efficacy in the data set with Rhipicephalus sanguineus, in the data set on Boophilus microplus, in the data set with Ctenocephalides felis [4] and with Lucilia cuprina was 100% each time.

As for `N#CC1(NC(=O)c2cc(-c3cnn(-c4c(Cl)cc(OC(F)(F)F)cc4Cl)c3)ccc2Cl)CC1` [I-T3-87], in data set [1], the “logP^a)” value is given as 3.6. The efficacy in the data set on Ctenocephalides felis [2], with Boophilus microplus, in the data set with Ctenocephalides felis [4], with Lucilia cuprina and in the data set on Musca domestica was 100% throughout.

Source of the values: patent publication US9758485B2, “Compounds for controlling arthropods” (priority 2013, dated 2017).
